# Laboratory results: patent publication US6656509B1, “Combination of selenium-containing compounds with cytostatics” (Biosyn Arzneimittel GmbH, priority 1998, dated 2003)
# Legend:
# [1] = cited from earlier work
# human tumor xenografts = assay: clonogenic assay, all 12 xenografts (means, active/total); format: cell-based
# Description: (§1) The cell mixture was passed through sieves of 200 μm and 50 μm mesh size and washed thereafter twice with PBS. The percentage of viable cells was determined in a Neubauer counting chamber using trypan blue exclusion.
# (§2) 8×10^3 to 1,6×10^4 cells were added to 0.2 ml of the same culture medium together with 0.4% agar and placed in already coated 24-multiwell dishes. Test substances were applied by continuous exposure (drug overlay) in 0.2 ml medium. Every dish included six control wells containing the vehicle- and drug-treated groups in triplicate at six concentrations.
# (§3) Cultures were incubated at 37° and 7% CO2 in a humidified atmosphere for 5 to 15 days (depending on the doubling time of the tumor stem cells) and monitored for colony growth using an inverted microscope. Within this period, in vitro tumor growth led to the formation of colonies with a diameter of ≧50 μm. At the time of maximum colony formation counts were performed with an automatic image analysis system (OMNICOM Fas IV, Biosys GmbH). […] Drug effects were expressed in terms of the percentage of surviving cells, obtained by comparison of the mean number of colonies in the treated plates with the mean colony count of the untreated controls (test-versus-control-group value, T/C=colony countTreated Group*100/colony countControl Group).
# (§4) Coefficient of variation in the control group ≦50%. IC50 and IC70 values were determined by plotting compound concentration versus cell survival rate. Mean IC50 and IC70 values were calculated according to the formula: [formula]
# (§5) with x=specific tumor xenograft and n=total number of tumor xenografts studied. If an IC50 or IC70 value could not be determined within the examined dose range, the lowest or highest concentration studied was used for the calculation.
# [2] = test system: pancreatic cancer xenograft PAXF 546; assay: clonogenic assay, single agents and combination studies; format: cell-based, human
# Description: as §1, §2, §3, §4, §5
# Each experiment included the chemotherapeutic agents in 6 concentrations, selenium in 2 concentrations (3 and 30 μM), and the combination of all doses with selenium at 3 and 30 μM. All compounds and combinations were studied in triplicates. […] Each experiment was performed twice.
# T/Cexpectd(A+B)=T/C(A)×T/C(B)/100
# For a zero-interactive drug combination (additivity of drug effects) T/Cexpected(A+B)[…]T/Cobserved(A+B). A drug combination is synergistic if T/Cobserved(A+B) is statistically significant[…]T/Cexpected(A+B). Statistical significance was determined by the T-test.
# [3] = corresponding selenium concentration
# [4] = mean over the xenografts studied
smiles,measurement,setting,value
O=[Se]([O-])[O-].[Na+].[Na+] [sodium selenite],dosage considered harmless in sensitive persons,"[1]; humans, sensitive persons",up to 500 μg per day
same,safe maximum daily intake of selenium,"[1]; humans, inferred from chronic toxicity observations",820 µg
same,daily supply after which clinical signs of selenosis were observed,[1]; study carried out in China,3200 to 6700 µg
same,T/C values in all xenografts,human tumor xenografts; 100 μM,below 20%
same,"active(++, +++)/total",human tumor xenografts; 1. μM,0/12
same,"active(++, +++)/total xenografts only, percent",human tumor xenografts; 1. μM,0%
same,"active(++, +++)/total",human tumor xenografts; 10. μM,2/12
same,"active(++, +++)/total xenografts only, percent",human tumor xenografts; 10. μM,17%
same,"active(++, +++)/total",human tumor xenografts; 100. μM,12/12
same,"active(++, +++)/total xenografts only, percent",human tumor xenografts; 100. μM,100%
same,"active(++, +++)/total",human tumor xenografts; .001 μM,0/12
same,"active(++, +++)/total xenografts only, percent",human tumor xenografts; .001 μM,0%
same,"active(++, +++)/total",human tumor xenografts; .01 μM,0/12
same,"active(++, +++)/total xenografts only, percent",human tumor xenografts; .01 μM,0%
same,"active(++, +++)/total",human tumor xenografts; .1 μM,0/12
same,"active(++, +++)/total xenografts only, percent",human tumor xenografts; .1 μM,0%
same,cytotoxic effect,human tumor xenografts; amounts up to 1 μM,no distinct cytotoxic effect
same,mean IC50 as selenium concentration,human tumor xenografts; [3],"1,2 μg/ml"
same,mean IC70 as selenium concentration,human tumor xenografts; [3],2.1 µg/mL
same,IC50,human tumor xenografts; [4],15.5 µM
same,mean IC70,human tumor xenografts; [4],27 µM
same,Sodium selenite T/C in %,"[2]; 3.0 μM alone, X261, X295",91 ± 8%
same,Sodium selenite T/C in %,"[2]; 30.0 μM alone, X261",80 ± 13%
same,Sodium selenite T/C in %,"[2]; 30.0 μM alone, X295",49 ± 6%
same,Test/control (%) at drug concentration [μM] 1.,"[2]; PAXF 546/2, *(2)",104%
same,Test/control (%) at drug concentration [μM] 10.,"[2]; PAXF 546/2, *(2)",88%
same,Test/control (%) at drug concentration [μM] 100.,"[2]; PAXF 546/2, *(2)",2%
same,Test/control (%) at drug concentration [μM] .001,"[2]; PAXF 546/2, *(2)",82%
same,Test/control (%) at drug concentration [μM] .01,"[2]; PAXF 546/2, *(2)",112%
same,Test/control (%) at drug concentration [μM] .1,"[2]; PAXF 546/2, *(2)",100%
same,Test/control (%) class at drug concentration [μM] 1.,"[2]; PAXF 546/2, *(2)",− (− (T/C ≧ 50%))
same,Test/control (%) class at drug concentration [μM] 10.,"[2]; PAXF 546/2, *(2)",− (− (T/C ≧ 50%))
same,Test/control (%) class at drug concentration [μM] 100.,"[2]; PAXF 546/2, *(2)",+++ (+++ (T/C ≦ 10%))
same,Test/control (%) class at drug concentration [μM] .001,"[2]; PAXF 546/2, *(2)",− (− (T/C ≧ 50%))
same,Test/control (%) class at drug concentration [μM] .01,"[2]; PAXF 546/2, *(2)",− (− (T/C ≧ 50%))
same,Test/control (%) class at drug concentration [μM] .1,"[2]; PAXF 546/2, *(2)",− (− (T/C ≧ 50%))
